How the values were obtained:
Assay type in all cases: in vivo
Phaedon cochleariae = Phaedon cochleariae spray test; settings: application rate 100 g/ha, larvae on Chinese cabbage leaf discs, after 7 days
Method: (§1) Solvent: 78.0 parts by weight of acetone • • 1.5 parts by weight of dimethylformamide Emulsifier: alkylaryl polyglycol ether […] To produce further test concentrations, the formulation is diluted with emulsifier-containing water. Discs of Chinese cabbage leaves (Brassica pekinensis) are sprayed with an active ingredient formulation of the desired concentration and, after drying, populated with larvae of the mustard beetle (Phaedon cochleariae).

Musca domestica = Musca domestica test; settings: application rate 100 ppm, adult houseflies, kill after 2 days
Method: (§2) Solvent: dimethyl sulfoxide
(§3) To produce a suitable preparation of active compound, 10 mg of active compound are mixed with 0.5 ml of dimethyl sulfoxide, and the concentrate is diluted with water to the desired concentration.
Vessels containing a sponge treated with sugar solution and the active ingredient formulation of the desired concentration are populated with 10 adult houseflies (Musca domestica)).
After 2 days, the kill in % is determined. 100% means that all of the flies have been killed; 0% means that none of the flies have been killed.

Boophilus microplus = Boophilus microplus injection test; settings: application rate 20 μg/animal, after 7 days, laying of fertile eggs
Method: Solvent: dimethyl sulfoxide […] The animals are transferred into dishes and kept in a climate-controlled room. Efficacy is assessed after 7 days by laying of fertile eggs. Eggs which are not visibly fertile are stored in a climate-controlled cabinet until the larvae hatch after about 42 days.

Ctenocephalides felis [1] = assay: Ctenocephalides felis oral test; settings: application rate 100 ppm in citrated cattle blood, kill after 2 days
Source text: Solvent: dimethyl sulfoxide […] Dilution with citrated cattle blood gives the desired concentration. About 20 unfed adult cat fleas (Ctenocephalides felis) are placed into a chamber which is closed at the top and bottom with gauze. A metal cylinder whose bottom end is closed with parafilm is placed onto the chamber. The cylinder contains the blood/active ingredient formulation, which can be imbibed by the fleas through the parafilm membrane.

Lucilia cuprina = Lucilia cuprina test; settings: application rate 100 ppm, L1 larvae, kill after 2 days
Method: as §2, §3
About 20 L1 larvae of the Australian sheep blowfly (Lucilia cuprina) are transferred into a test vessel containing minced horsemeat and the active compound formulation of the desired concentration.
After 2 days, the kill in % is determined. 100% means that all the larvae have been killed; 0% means that no larvae have been killed.

Spodoptera frugiperda = Spodoptera frugiperda spray test; settings: application rate 100 g/ha, caterpillars on maize leaf discs, after 7 days
Method: as §1, with “Leaf discs” for “Discs”, “maize (Zea mays)” for “Chinese cabbage leaves (Brassica pekinensis)”, “compound” for “ingredient”, “caterpillars” for “larvae”, “armyworm (Spodoptera frugiperda).” for “mustard beetle (Phaedon cochleariae).”

Tetranychus urticae = Tetranychus urticae spray test, OP-resistant; settings: application rate 100 g/ha, all stages on bean leaf discs, after 6 days
Method: Solvent: 78.0 parts by weight of acetone • • 1.5 parts by weight of dimethylformamide Emulsifier: alkylaryl polyglycol ether […] To produce further test concentrations, the formulation is diluted with emulsifier-containing water. Discs of bean leaves (Phaseolus vulgaris) infested with all stages of the greenhouse red spider mite (Tetranychus urticae) are sprayed with an active ingredient formulation of the desired concentration.

Rhipicephalus sanguineus = Rhipicephalus sanguineus in vitro contact test with adult brown dog ticks; settings: application rate 5 μg/cm^2 (500 g/ha), after 48 h, dead or moribund ticks
Method: After the solvent has evaporated off, the tubes are populated with 5-10 adult dog ticks (Rhipicephalus sanguineus), sealed with a perforated plastic lid and incubated in a horizontal position in the dark at room temperature and ambient humidity. After 48 h, efficacy is determined. To this end, the ticks are knocked to the base of the tube and incubated on a hotplate at 45-50° C. for not more than 5 min. Ticks which remain motionless on the base or move in such an uncoordinated manner that they are unable to deliberately avoid the heat by climbing upwards are considered to be dead or moribund.

Ctenocephalides felis [2] = assay: Ctenocephalides felis in vitro contact test with adult cat fleas; settings: application rate 5 μg/cm^2 (500 g/ha), after 48 h, dead or moribund fleas
Method: After the solvent has evaporated off, the tubes are populated with 5-10 adult cat fleas (Ctenocephalides felis), sealed with a perforated plastic lid and incubated in a horizontal position at room temperature and ambient humidity. After 48 h, efficacy is determined. To this end, the tubes are stood upright and the fleas are knocked to the base of the tube. Fleas which remain motionless at the base or move in an uncoordinated manner are considered to be dead or moribund.

## COc1cc(C(=O)Nc2cc(-c3cnn(-c4c(C)cc(C(F)(C(F)(F)F)C(F)(F)F)cc4C(F)(F)F)c3)cnc2Cl)ccc1F [Example 24]
Phaedon cochleariae
  efficacy: 100%
Musca domestica
  efficacy: 100%
Boophilus microplus
  efficacy: 100%
Ctenocephalides felis [1]
  efficacy: 100%
Lucilia cuprina
  efficacy: 100%
Spodoptera frugiperda
  efficacy: 100%
Tetranychus urticae
  efficacy: 100%
Rhipicephalus sanguineus
  efficacy: 100%

## Cc1cc(C(F)(C(F)(F)F)C(F)(F)F)cc(C(F)(F)F)c1-n1cc(-c2ccc(F)c(NC(=O)c3ccc(C#N)nc3)c2)cn1 [Example 46]
Phaedon cochleariae
  efficacy: 100%
Musca domestica
  efficacy: 100%
Boophilus microplus
  efficacy: 100%
Ctenocephalides felis [1]
  efficacy: 100%
Lucilia cuprina
  efficacy: 100%
Spodoptera frugiperda
  efficacy: 100%
Ctenocephalides felis [2]
  efficacy: 100%

## Cc1cc(C(F)(C(F)(F)F)C(F)(F)F)cc(C(F)(F)F)c1-n1cc(-c2cccc(NC(=O)c3ccncc3)c2F)cn1 [Example 68]
Phaedon cochleariae
  efficacy: 100%
Musca domestica
  efficacy: 100%
Boophilus microplus
  efficacy: 100%
Ctenocephalides felis [1]
  efficacy: 100%
Lucilia cuprina
  efficacy: 100%
Spodoptera frugiperda
  efficacy: 100%
Tetranychus urticae
  efficacy: 100%
Ctenocephalides felis [2]
  efficacy: 100%

## COc1cccc(C(=O)Nc2cc(-c3cnn(-c4c(C)cc(C(F)(C(F)(F)F)C(F)(F)F)cc4C(F)(F)F)c3)ccc2F)c1 [Example 32]
Phaedon cochleariae
  efficacy: 100%
Musca domestica
  efficacy: 90%
Boophilus microplus
  efficacy: 100%
Ctenocephalides felis [1]
  efficacy: 100%
Lucilia cuprina
  efficacy: 100%
Spodoptera frugiperda
  efficacy: 100%
Ctenocephalides felis [2]
  efficacy: 100%

## Cc1cnccc1C(=O)Nc1cc(-c2cnn(-c3c(C)cc(C(F)(C(F)(F)F)C(F)(F)F)cc3C(F)(F)F)c2)ccc1F [Example 54]
Phaedon cochleariae
  efficacy: 100%
Musca domestica
  efficacy: 100%
Boophilus microplus
  efficacy: 100%
Ctenocephalides felis [1]
  efficacy: 100%
Lucilia cuprina
  efficacy: 100%
Spodoptera frugiperda
  efficacy: 100%
Tetranychus urticae
  efficacy: 100%
Ctenocephalides felis [2]
  efficacy: 100%

## Cc1cc(C(F)(C(F)(F)F)C(F)(F)F)cc(C(F)(F)F)c1-n1cc(-c2ccc(F)c(NC(=O)C3CSC3)c2)cn1 [Example 66]
Phaedon cochleariae
  efficacy: 100%
Musca domestica
  efficacy: 100%
Boophilus microplus
  efficacy: 100%
Ctenocephalides felis [1]
  efficacy: 100%
Lucilia cuprina
  efficacy: 100%
Spodoptera frugiperda
  efficacy: 100%
Tetranychus urticae
  efficacy: 100%
Rhipicephalus sanguineus
  efficacy: 100%

## Cc1cc(C(F)(C(F)(F)F)C(F)(F)F)cc(C(F)(F)F)c1-n1cc(-c2ccc(F)c(NC(=O)c3ccnc(F)c3)c2)cn1 [Example 51]
Phaedon cochleariae
  efficacy: 100%
Musca domestica
  efficacy: 100%
Boophilus microplus
  efficacy: 100%
Ctenocephalides felis [1]
  efficacy: 100%
Lucilia cuprina
  efficacy: 100%
Spodoptera frugiperda
  efficacy: 100%
Tetranychus urticae
  efficacy: 90%
Ctenocephalides felis [2]
  efficacy: 100%

## O=C(Nc1cc(-c2cnn(-c3c(Cl)cc(C(F)(C(F)(F)F)C(F)(F)F)cc3Cl)c2)cnc1F)c1ccncc1 [Example 19]
Phaedon cochleariae
  efficacy: 100%
Musca domestica
  efficacy: 100%
Boophilus microplus
  efficacy: 100%
Ctenocephalides felis [1]
  efficacy: 100%
Lucilia cuprina
  efficacy: 100%
Spodoptera frugiperda
  efficacy: 100%
Tetranychus urticae
  efficacy: 100%
Ctenocephalides felis [2]
  efficacy: 100%

## Cc1cc(C(F)(C(F)(F)F)C(F)(F)F)cc(C)c1-n1cc(-c2ccc(N(C)C)c(NC(=O)c3ccncc3)c2)cn1 [Example 20]
Phaedon cochleariae
  efficacy: 100%
Musca domestica
  efficacy: 90%
Boophilus microplus
  efficacy: 100%
Ctenocephalides felis [1]
  efficacy: 100%
Spodoptera frugiperda
  efficacy: 100%
Tetranychus urticae
  efficacy: 100%
Ctenocephalides felis [2]
  efficacy: 100%
